Patent US20250074946A1, “USE OF SE-DR AFFINITY PEPTIDE IN PREPARING DRUG FOR TREATING RHEUMATIC DISEASE” (HEBEI FITNESS BIOTECHNOLOGY CO., LTD., priority 2021, published 2025)
Where no end group is shown, it is not given here.

What was measured:
[1] = test system: CIA rats; assay: APL20 in combination with methotrexate in CIA rats (Example 11); assay type: in vivo, rat; conditions: for inflammation score during drug discontinuation compared with that at the time of drug discontinuation: 21 days of observation after stopping at day 21; for Pathological score during 21 days of drug discontinuation: HE staining of ankle joint, score 0-4; for AUC, during drug discontinuation (day 22-42): inflammation score AUC after stopping administration at day 21
Source text: Female Lewis rats were used to establish CIA model. Methods: the rats were immunized by intradermal injecting the emulsion prepared by bovine C II and IFA at the tail head. After 7 days, the rats were boosted once with the same method. Thereafter, the morphological changes of the four paws of the rats were examined every day, and the rats were randomly assigned to the treatment group at the inflammation score of 1. […] Another 8 female Lewis rats were not subjected to model establishment and set as the control group. PBS was administrated to both the model group and the control group. Corresponding drugs were administrated to the rats in each group by tail vein injection at the volume of 5 mL/kg, in which methotrexate was administrated twice a week, and other drugs were administrated once every other day, for 21 consecutive days, followed by a recovery period of 21 days. The inflammation scores of the four paws of the rats in each group were evaluated during the administration (once every other day), and the area under the curve (AUC) of the inflammation score was calculated during the administration. During drug discontinuation, the inflammation scores of the four paws of the rats in each group were continuously evaluated (once every other day), and the rats were sacrificed on day 22 after drug discontinuation. HE staining was performed on the ankle joint for tissue injury evaluation. The specific scoring criteria were as follows: 0=normal synovial tissue; 1=synovial hyperplasia and inflammatory cell infiltration; 2-pannus formation and cartilage erosion; 3=destruction of most of the cartilage with subchondral bone erosion; 4=loss of joint integrity, ankylosis.

[2] = test system: CIA rats; assay: as above; assay type: in vivo, rat
[3] = test system: rats; conditions: cited from earlier work
[4] = biological target: HLA-DR1 (Homo sapiens, UniProt P01903+P01911, A100R/D57E/F55L/F60I/F76Y/I96L/L162R/M171V/P40L/Q125E/R42F/V115G/Y59C); assay: Determination of polypeptide affinity (fluorescence polarization competition); assay type: binding
Description: The reaction system was at pH 7.4. Before use, protease inhibitor cocktail was added, and incubated at 37° C. for 30 min. The fluorescence polarization values were read. The mean value of the free labeled polypeptides was set as FP_free, and the value of the well without the competitive peptide was set as FP_no_comp. The relative binding rate of other wells was calculated according to the formula=(FP_sample−FP_free)/(FP_no_comp−FP_free). A curve was plotted using the relative binding rate and the concentration of the test polypeptide, and the IC50 value was calculated by curve fitting.

[5] = test system: PBMC; assay: PBMC stimulation test, IL-6 in supernatant by ELISA; assay type: cell-based, human; conditions: PBMC 1×10^6 cell/ml, peptide 10 μg/ml, 5 days of culture
Outline: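 Human PBMC isolated from blood by Ficoll density centrifugation, seeded at 1×10^6 cell/ml in 1640 complete medium with peptide at final 10 μg/ml. Cultured 5 days; IL-6 in supernatant measured by ELISA.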

[6] = test system: CIA rats; assay: CIA rat model: inflammation score AUC and peripheral blood T-cell subtypes (Example 3); assay type: in vivo; conditions: 0.2 mmol
Description: Collagen-induced arthritis (CIA) model was established by intradermal injection of the emulsion formulated using type II bovine collagen (CII) together with incomplete Freund's adjuvant (IFA) into the tail head of a female Lewis rat. After the model establishment, the morphological changes of rats' four paws were examined every day. […] Except for the model group, the dosage of polypeptide was all set as 0.2 mmol. A control group was also set up, in which the drug was injected into the tail vein once every other day for […]. The area under the curve (AUC) of the inflammation score was used for the efficacy analysis from the day the rats were enrolled, once every other day, until the end of administration.

[7] = test system: immune system of healthy rats; assay: Immune indicators of SD rats after one month of administration (Example 4); assay type: in vivo, rat; conditions: once a day for 4 weeks, end of administration
Description: SD rats were used to investigate the effects of the SE-DR affinity peptides on the immune indicators of the rats after continuous administration for one month. […] At the end of administration, analysis was conducted on the serum anti-FNS007 antibodies, different types of serum immunoglobulins, the serum complement, the peripheral blood T lymphocyte and the serum cytokines.

[8] = test system: immune system of healthy monkeys; assay: Immune indicators of cynomolgus monkeys after one month of administration (Example 5); assay type: in vivo, cynomolgus monkey; conditions: once a day for 4 weeks, end of administration
Source text: Cynomolgus monkeys were used to investigate the effects of the SE-DR affinity peptide on the immune indicators of cynomolgus monkeys after continuous administration for one month. […] At the end of administration, the immune indicators, including the serum anti-FNS007 antibodies, the immunoglobulins of different serotypes, the serum complement, the peripheral blood T lymphocyte and the serum cytokines, were observed.

[9] = test system: CIA mice infected with chronic hepatitis B; assay: CIA mice infected with chronic hepatitis B (Example 8); assay type: in vivo, mouse
Outline: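 DBA/1 mice given rAAV8-1.3HBV (1×10^12 vg/mL) i.v.; 2 days later immunised intradermally with bovine CII/CFA (100 μg collagen), boosted i.p. at day 21 with CII/IFA. Randomised at paw score 1; drugs i.v. every other day for 27 days. Paw inflammation scores, serum viral and liver-function markers measured.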

[10] = test system: CIA rats with latent tuberculosis infection
[11] = inflammation score AUC, APL20 0.2 mmol once every other day, methotrexate 0.5 mg/kg twice a week, i.v.
[12] = peripheral blood, […] after end of administration, flow cytometry

## CN(Cc1cnc2nc(N)nc(N)c2n1)c1ccc(C(=O)N[C@@H](CCC(=O)O)C(=O)O)cc1 [Methotrexate, methotrexate]
[1]
  inflammation score during drug discontinuation compared with that at the time of drug discontinuation: significantly increased
  Pathological score during 21 days of drug discontinuation: 2.87 ± 0.79
  AUC, during drug discontinuation (day 22-42): 100.13 ± 50.66
[1]; [11]
  AUC, during administration (day 1-21): 67.69 ± 22.72
  AUC, the first week during administration: 16.58 ± 5.23
[1]; inflammation score AUC, APL20 0.2 mmol once every other day, methotrexate 0.5 mg/kg twice a week, i.v., listed as methotrexate
  AUC, during administration (day 1-21): 67.69
[2]
  Incidence of infection in mice: 20%
[3]
  half lethal dose: 43 mg/kg

## PGYVKQGTLGLAT [APL3]
[4]
  IC50: 3.35 µM

## SIDLKDKKYKNIGAKLVQLVANNTNEEA [APL20]
[5]
  IL-6 levels in the supernatant: 2.7 ng/mL
[6]; female Lewis CIA rats, tail vein once every other day for 15 days
  Inflammation score and area under the time curve (AUC): 55.31 ± 40.23
[6]; [12]
  Th1 (%): 0.18 ± 0.07 %
  Th2 (%): 4.35 ± 0.62 %
  Th17 (%): 0.88 ± 0.07 %
  Treg (%): 5.46 ± 0.81 %
[1]
  inflammation score during drug discontinuation compared with that at the time of drug discontinuation: could maintain the therapeutic effect
  Pathological score during 21 days of drug discontinuation: 2.05 ± 0.34
  AUC, during drug discontinuation (day 22-42): 50.11 ± 41.27
[7]
  CD3%: 36.96 ± 9.81%
  CD4%: 18.96 ± 5.98%
  CD8%: 17.99 ± 8.23%
  IFN-γ: 2.58 ± 0.29 pg/mL
  IL-2: 3.55 ± 2.75 pg/mL
  IL-4: 2.03 ± 1.01 pg/mL
  TNF-α: 5.09 ± 1.88 pg/mL
[2]
  Incidence of infection in mice: 0%
[8]
  CD3%: 62.96 ± 9.77%
  CD4%: 27.82 ± 8.05%
  CD8%: 22.97 ± 7.09%
  IFN-γ: 5.18 ± 0.33 pg/mL
  IL-2: 4.55 ± 0.71 pg/mL
  IL-4: 2.16 ± 0.36 pg/mL
  TNF-α: 2.45 ± 0.38 pg/mL
[9]; at sacrifice, day 28
  ALT level: 46.28 ± 17.99 U/L
  Hepatitis B activation rate (Ratio of ALT > 100 U/L): 0%
[9]; during administration
  Observation on the daily condition of mice: No abnormality
[9]; peptides 50 μmol, Abatacept 100 μg, tail i.v. once every other day for 27 days
  Inflammation score and area under the time curve (AUC): 92.34 ± 53.29
[10]; during administration
  Observation on the daily condition of rats: No abnormality
[10]; peptides 0.2 mmol, adalimumab 1 mg/kg, 21 days
  Tuberculosis recurrence rate: 0%
[10]; peptides 0.2 mmol, adalimumab 1 mg/kg, tail i.v. once every other day for 21 days
  Inflammation score and area under the time curve (AUC): 49.62 ± 35.87
[10]; sacrifice on day 22, peptides 0.2 mmol, adalimumab 1 mg/kg
  Culture of MTB from lungs and spleens of rats at sacrifice: Negative
